Reference: BindingDB's records for doi:10.1016/j.bmcl.2014.08.028 (Rhône-Poulenc Rorer, 2014)

experiment: Antagonist activity at CRTH2 receptor in human whole blood assessed as inhibition of PGD2-induced eosinophil shape change after 10 mins by fluorescence assay

Point of comparison: `Cc1ccc2c(CC(=O)O)cn(-c3ccc(Cl)cc3Cn3c(C)nnc3Cc3ccccc3)c2n1`, IC50 2 nM. Against it:
- Cc1ccc2c(CC(=O)O)cn(-c3ccc(F)cc3Cc3c(C)cnn3C)c2n1 — 3-fold higher, 6 nM
- Cc1ccc(-n2cc(CC(=O)O)c3ccc(C)nc32)c(Cn2c(C)nnc2C)c1 — 2-fold lower, 1 nM
- Cc1ccc2c(CC(=O)O)cn(-c3ccc(Cl)cc3Cn3c(C)nnc3C3CC3)c2n1 — 2-fold higher, 4 nM
- Cc1nnc(C2CC2)n1Cc1cc(C(F)(F)F)ccc1-c1cn(CC(=O)O)c2ccc(F)cc12 — the same, 2 nM
- Cc1nnc(C2CC2)n1Cc1cc(C(F)(F)F)ccc1-n1cc(CC(=O)O)c2ccc(F)cc21 — 3.5-fold higher, 7 nM
- Cc1ccc2c(CC(=O)O)cn(-c3ccc(Cl)cc3Cn3c(C)nnc3CCc3ccccc3)c2n1 — 2.5-fold higher, 5 nM
- Cc1noc(C2CC2)c1Cc1cc(F)ccc1-c1cn(CC(=O)O)c2ccc(C(F)(F)F)cc12 — 8-fold higher, 16 nM
- Cc1ccn2c(CC(=O)O)cc(-c3ccc(C(F)(F)F)cc3Cc3c(C)noc3C3CC3)c2n1 — 13-fold higher, 26 nM
- Cc1noc(C2CC2)c1Cc1cc(C(F)(F)F)ccc1-c1cn(CC(=O)O)c2ccc(C(F)(F)F)nc12 — 27-fold higher, 54 nM
- Cc1ccc2c(CC(=O)O)cn(-c3ccc(F)cc3Cc3c(C)noc3C3CC3)c2n1 — 2-fold lower, 1 nM
- Cc1ccc2c(CC(=O)O)cn(-c3ccc(C(F)(F)F)cc3Cc3c(C)noc3C3CC3)c2n1 — 2.5-fold higher, 5 nM
- Cc1ccc2c(CC(=O)O)cn(-c3ccc(C(F)(F)F)cc3Cc3c(C4CC4)noc3C3CC3)c2n1 — 30-fold higher, 60 nM
- Cc1ccc2c(CC(=O)O)cn(-c3ccc(Cl)cc3Cc3c(C4CC4)noc3C3CC3)c2n1 — 5-fold higher, 10 nM
